Results on one compound are retold here after PMC8694002 (RSC Advances, 2021).

A word on the IC50: it is the concentration at which inhibition is half-maximal.

For assay [1], the target named is T1, TCPTP (13–358) (Homo sapiens, UniProt P17706).
T1 sequence (P17706 13-358): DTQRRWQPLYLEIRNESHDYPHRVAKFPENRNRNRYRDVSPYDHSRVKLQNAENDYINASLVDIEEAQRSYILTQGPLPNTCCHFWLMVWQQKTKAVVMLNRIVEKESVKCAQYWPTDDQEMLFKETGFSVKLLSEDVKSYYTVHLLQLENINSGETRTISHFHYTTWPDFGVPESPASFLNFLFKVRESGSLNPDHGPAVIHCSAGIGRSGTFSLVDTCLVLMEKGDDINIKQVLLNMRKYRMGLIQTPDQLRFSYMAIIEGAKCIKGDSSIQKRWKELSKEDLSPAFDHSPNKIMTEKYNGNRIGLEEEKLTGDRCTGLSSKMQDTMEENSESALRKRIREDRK
Put plainly: TCPTP inhibition assay with DiFMUP as substrate. As to conditions: read-out: IC50 TCPTP; means ± SD of three replications. The format is biochemical.

Assay [2] addresses T2, PTP1B (1–321) (Homo sapiens, UniProt P18031).
T2 sequence (P18031 1-321): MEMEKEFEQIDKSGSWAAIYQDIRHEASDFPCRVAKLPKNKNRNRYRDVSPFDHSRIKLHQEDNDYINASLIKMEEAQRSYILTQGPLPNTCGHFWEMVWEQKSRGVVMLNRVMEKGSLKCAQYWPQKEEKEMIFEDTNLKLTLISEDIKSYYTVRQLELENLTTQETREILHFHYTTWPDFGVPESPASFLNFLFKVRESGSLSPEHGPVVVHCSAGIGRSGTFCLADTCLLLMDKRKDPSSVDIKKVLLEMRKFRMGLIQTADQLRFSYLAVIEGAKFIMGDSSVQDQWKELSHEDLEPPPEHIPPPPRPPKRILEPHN
Put plainly: PTP1B inhibition assay with DiFMUP as substrate.

Where two headings read alike, the source gives them in different places.

Consider `O=S(=O)(O)c1ccc2cc(N=Nc3cc(S(=O)(=O)O)c4cccnc4c3O)ccc2c1` [NSC-87877], for which the IC50 in assay [1] stood at 71.9 ± 3.87 µM; in assay [2] (PTP1B, Table 3, means ± SD of three replications), 26.2 ± 8.58 µM; in assay [2] (read-out: IC50 PTP1B, means ± SD of three replications), 26.2 ± 8.58 µM.
